Biological target: human GLUT9 (Homo sapiens (Human), UniProt Q9NRM0)
Assay: Evaluation of human GLUT9 inhibitory activity ([14C] uric acid uptake in human GLUT9 expressing HEK293T cells transduced with Uricase/Hyper)
Format: cell-based
Conditions: final 300 μM uric acid, 6 min, human GLUT9 stably expressing HEK293T cells, read-out: humans GLUT9 inhibitory activity (IC50 value (μM))
Description: A method for measuring GLUT9 inhibitory activity using human GLUT9 expressing cells transduced with Uricase/Hyper is shown hereinafter. GLUT9 inhibitory activity ([…]) of the test compound was calculated based on the intracellular uptake amount of labeled uric acid ([^14C] uric acid) transported by GLUT9.
1. Preparation of Human GLUT9 Expression Plasmid
Human GLUT9S coding region (NM_001001290.1) was amplified by PCR method using PrimeSTAR MAX DNA Polymerase (Takara Bio). The obtained PCR product was subjected to agarose gel electrophoresis, and the desired size of PCR product was purified by QIAquick Gel Extraction Kit (QIAGEN). Next, pEBMulti-Bsd vector (Wako Pure Chemical Industries, Ltd.) was subjected to digestion using restriction enzymes SalI and EcoR V, and linked to the PCR product containing GLUT9S by In-Fusion reaction using In-Fusion HD Cloning Kit (Takara Bio). XL10-Gold Competent Cells (Agilent Technologies) were transformed in In-Fusion reaction solution, and the obtained transfectants were cultured with shaking overnight in LB medium to which Blasticidin S HCl (Thermo Fisher Scientific) was added. Human GLUT9 expression plasmid DNA was prepared from the collected transfectants using EndoFree Plasmid Kit (Takara Bio).
2. Establish of Human GLUT9 Stably Expressing Cell
HEK293T cells (American Type Culture Collection, DS Pharma Biomedical) were seeded in a 6 well plate at 1×10^6 cells/well. Next day, human GLUT9 expression plasmid was transfected by using Lipofectamine 3000 Reagent (Thermo Fisher Scientific) as follows. Lipofectamine 3000 Reagent (5 μL) was diluted with Opti-MEM (125 μL, Thermo Fisher Scientific). Separately, plasmid DNA (2.5 μg) was diluted with Opti-MEM (125 μL), and P3000 Reagent (5 μL) was added thereto. The obtained solution was mixed with the previously obtained diluted solution, and the mixture was left stand at room temperature for 5 min, and added to the cells. Next day, the transfected cells were diluted and reseeded in a 6 well plate at 4×10^5 cells/well, and drug selection was performed in the presence of 30 μg/mL of Blasticidin S HCl, and thereby, Blasticidin-resistant human GLUT9 stably expressing cell line was established. Mock cells were prepared by introducing pEBMulti-Bsd vector into HEK293T cells in a similar manner.
3. Preparation of Uricase/Hyper Expression Plasmid
Uricase/Hyper expression plasmid was prepared by linking the coding regions of Aspergillus Flavus-derived uricase gene and pHyPer-Cyto vector (Evrogen) HyPer gene to the pEBMulti-Hyg vector (Wako Pure Chemical Industries, Ltd.) and then introducing it. The preparation method was performed by reference to Gout and Nucleic Acid Metabolism 2013, 37(2), 93-101, and seven repeated linker sequence of glycine-glycine-glycine-serine was prepared herein.
4. Preparation of Human GLUT9-Uricase/Hyper Coexpressing Cell
Human GLUT9 stably expressing cells were seeded at 3.6×10^7 cells per 225 cm^2 flask. Next day, Uricase/Hyper expression plasmid was transfected by using Lipofectamine 3000 Reagent as follows. Lipofectamine 3000 Reagent (40 μL) was diluted with Opti-MEM (750 μL). Separately, plasmid DNA (20 μg) was diluted with Opti-MEM (750 μL), and P3000 Reagent (40 μL) was added thereto. The obtained solution was mixed with the previously obtained diluted solution, and the mixture was left stand at room temperature for 5 min, and added to the cells. Next day, transfected cells were collected to prepare human GLUT9-Uricase/Hyper coexpressing cells.
5. Evaluation of GLUT9 Inhibitory Activity
Uricase/Hyper transiently-transfected human GLUT9 stably expressing cells or mock cells (blank) were seeded in a 96 well plate (Corning) at 1.6×10^5 cells/well, and cultured overnight at 37° C., 5% CO2. D-MEM/high glucose (Wako Pure Chemical Industries, Ltd.) containing 10% Fetal Bovine Serum (Lifetechnology) and 100 units/ml penicillin/100 μg/ml streptomycin (GIBCO) was used as a medium.

Chain of human GLUT9 (Q9NRM0 other isoform, or with tags, fused parts or gaps): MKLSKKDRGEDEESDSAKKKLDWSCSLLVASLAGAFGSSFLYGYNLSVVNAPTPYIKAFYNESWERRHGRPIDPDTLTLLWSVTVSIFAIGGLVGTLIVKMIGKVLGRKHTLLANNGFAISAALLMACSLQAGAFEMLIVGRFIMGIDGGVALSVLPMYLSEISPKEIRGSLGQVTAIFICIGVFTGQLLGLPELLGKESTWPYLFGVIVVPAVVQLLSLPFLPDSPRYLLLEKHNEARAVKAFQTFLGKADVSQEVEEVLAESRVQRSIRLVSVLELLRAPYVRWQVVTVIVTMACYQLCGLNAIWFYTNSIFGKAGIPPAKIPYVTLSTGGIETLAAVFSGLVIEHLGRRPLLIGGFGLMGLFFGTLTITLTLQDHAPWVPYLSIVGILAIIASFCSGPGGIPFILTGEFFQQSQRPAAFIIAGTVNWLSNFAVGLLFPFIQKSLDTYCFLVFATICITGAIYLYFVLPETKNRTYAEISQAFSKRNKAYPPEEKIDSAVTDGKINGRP

| IC50 [µM] | Structure (SMILES) |
| --- | --- |
| 0.483 | CCCCc1cnc(-c2ccc(C#N)cc2)c(-c2ccc(C(=O)O)cc2)n1 [Example 9] |
| 0.0626 | CCCCc1cnc(-c2ccc(OC)cc2)c(-c2ccc(C(=O)O)cc2F)n1 [Example 5] |
| 0.247 | CCCCc1cnc(-c2ccc(OC)cc2)c(-c2ccc(C(=O)O)c(O)c2)n1 [Example 91] |
| 0.313 | CCOCCc1cnc(-c2cc(F)c(OC)c(F)c2)c(-c2ccc(C(=O)O)c(C)c2)n1 [Example 133] |
| 0.499 | CCOCCc1cnc(-c2ccc(OC)cc2)c(-c2ccc(C(=O)O)c(Cl)c2)c1 [Example 138] |
